Results as given in PubChem BioAssay AID1626 (SRMLSC, 2009).

Test system: M. tuberculosis H37Rv growth inhibition
Experiment: M. tuberculosis H37Rv growth inhibitors, H37Rv strain (AID 1626)
Conditions: for IC90: measured here: IC90 against H37Rv; for CC50: measured here: Vero cell cytotoxicity

O=C(Nc1nnc(-c2ccccn2)o1)c1cccc(Cl)c1
IC50: 5.25 µM | IC90: > 100 µM | CC50: > 40 µM

O=C(Nc1ccc(Cl)cc1)c1cc2c(cc1O)[nH]c1ccccc12
IC50: 1.71 µM | IC90: 2.29 µM | CC50: 13.4 µM

N#CCC1c2ccccc2CCN1C(=O)Nc1ccc(C(F)(F)F)cc1 (stereo unspecified)
IC50: 5.9 µM | IC90: > 100 µM

COc1ccc2c(c1)CCc1cnc(N)nc1-2
IC50: 69.9 µM | IC90: > 100 µM | CC50: > 40 µM

O=C(Nc1nnc(-c2ccc(F)cc2)o1)c1cccc([N+](=O)[O-])c1
IC50: 5.68 µM | IC90: 14.8 µM | CC50: 12.4 µM

Cc1cc(NCc2ccccn2)n2ncc(-c3ccccc3)c2n1
IC50: 4.82 µM | IC90: 7.62 µM | CC50: 31.4 µM

Cc1nc(SCc2ccc(F)cc2)c2oc3ccccc3c2n1
IC50: < 0.195 µM | IC90: > 100 µM

CCCCOC(=O)CSc1nc(N)c(C#N)c(-c2ccc(OC)cc2)c1C#N
IC50: 1.14 µM | IC90: 2.39 µM

CCOC(=O)C1(CCOc2ccccc2)CCN(C(=O)c2ccc(-n3cccn3)cc2)CC1
IC50: 27.2 µM | IC90: > 100 µM | CC50: > 40 µM

Cc1ccn2c(NC3CCCC3)c(-c3ccccn3)nc2c1
IC50: 3.19 µM | IC90: 5.24 µM | CC50: 8.93 µM

CCOc1ccc(NC(=O)c2ccc(NC(=O)c3cn4c5c(c(N6CCN(C)CC6)c(F)cc5c3=O)OCC4C)cc2)cc1 (stereo unspecified)
IC50: 2.83 µM | IC90: 3.17 µM | CC50: > 40 µM

c1cnc2c(c1)ccc1cccnc12
IC50: 4.46 µM | IC90: 8.17 µM | CC50: 3.98 µM

CCN(CC)CCn1c(NC(=O)c2ccc(C(F)(F)F)cc2)nc2ccccc21
CC50: > 40 µM

Cc1cccc(N=C2NN=C(c3c(C)[nH]c4ccccc34)CS2)c1
IC50: 10.4 µM | IC90: 16.3 µM | CC50: 38.6 µM

COc1ccc(CCNc2nc(N3CCCCC3)nc(N3CCCCC3)n2)cc1OC
IC50: 12.4 µM | IC90: 18.8 µM | CC50: > 40 µM

Cc1sc2cc3c(c(C(=O)c4ccccc4)[n+]2c1C)-c1cccc2cccc-3c12
IC50: 1.52 µM | IC90: 2.33 µM | CC50: > 40 µM

CN1CCN(CCCNC(=O)c2ccc(/C=C3\Sc4ccccc4N(Cc4ccc(F)cc4)C3=O)cc2)CC1
IC50: 6.38 µM | IC90: 11.3 µM | CC50: 12.5 µM

Nc1ccc(-c2cc(-c3cccc(N)c3)nc(-c3ccccc3)n2)cc1
CC50: > 40 µM

Nc1[nH]n2c(=O)c3c(nc2c1N=Nc1ccc(Cl)cc1)CCCC3
IC50: 10.7 µM | IC90: 21.5 µM | CC50: 25.4 µM

Nc1nnc(SCc2ccc(F)cc2)s1
IC90: > 100 µM

O=[N+]([O-])c1cc2cccnc2c2ncccc12
IC50: 1.4 µM | IC90: 1.49 µM | CC50: 33 µM

Cc1cc(NC(=O)c2c(F)cccc2F)n(-c2nc3ccccc3[nH]2)n1
IC50: 11.3 µM | IC90: 21.2 µM | CC50: 35.7 µM

Clc1ccc(-c2ccc(C=Nc3ccc(N4CCOCC4)cc3)o2)cc1
IC50: 7.5 µM | IC90: > 100 µM

COc1cc(NC(=O)c2ccc(Cl)cc2)c(OC)cc1NC(=O)CN1CCCCC1
IC50: 8.74 µM | IC90: 16.9 µM

O=C(CSc1ccncc1)Nc1ccc2ccccc2c1
IC50: 1.15 µM | IC90: > 100 µM

Cc1cc2ccccc2n1CCNC(=O)COc1ccc2ccccc2c1
IC50: 52.5 µM | IC90: > 100 µM

CC(=O)Oc1ccc2oc3c(c2c1)C(=O)CCC3
IC50: 12 µM | IC90: > 100 µM

O=C1C=C(c2cccs2)C[C@H](c2ccccc2)[C@H]1n1nnc([N+](=O)[O-])n1
IC50: 3.8 µM | IC90: 7.5 µM | CC50: < 0.078 µM

COc1ccc(Cl)cc1NC(=O)C(C)N1CCN(C/C=C/c2ccccc2)CC1 (stereo unspecified)
IC50: 12.3 µM | IC90: 13.3 µM

O=C(CSCc1nc2ccccc2[nH]1)Nc1ccc(Oc2ccccc2)cc1
IC50: 22.9 µM | IC90: > 100 µM | CC50: > 40 µM

COc1ccc(/C=C2\SC(=N)N(c3nccs3)C2=O)cc1OC
IC50: < 0.195 µM | IC90: > 100 µM | CC50: 17.9 µM

Nc1nc2c(s1)COc1ccccc1-2
IC90: > 100 µM

Fc1ccc(C(c2ccc(F)cc2)N2CCN(C/C=C/c3ccccc3)CC2)cc1
IC50: 7.94 µM | IC90: 10.1 µM | CC50: > 40 µM

O=C(Oc1ccc2cc(Br)ccc2c1)c1cccnc1
IC50: 1.38 µM | IC90: > 100 µM | CC50: > 40 µM

CNC(=O)c1csc(-c2ccc(Cl)cc2)n1
IC50: 38.6 µM | IC90: > 100 µM

CC(C)OC(=O)c1ccc(N)cc1
IC50: 30.1 µM | IC90: > 100 µM

CCOC(=O)COc1ccc(S(=O)(=O)NCCC2=CCCCC2)cc1
IC50: 12.1 µM | IC90: 20.8 µM

Cc1ccc(NC(=O)N2CCC(c3nc4c(nnn4Cc4cccc(Cl)c4)c(=O)[nH]3)CC2)cc1
IC50: 5.13 µM | IC90: 6.62 µM

O=C(CSc1nnc(CNc2cccc(Cl)c2)o1)OC1CCCCC1
IC50: 0.661 µM | IC90: 1.4 µM

O=C(Oc1c(Cl)cc(Cl)c2cccnc12)c1ccco1
IC50: 1.28 µM | IC90: 1.78 µM | CC50: 10 µM

CC(C)COC(=O)c1ccc2c(c1O)C(=O)c1ccccc1C2=O
IC50: 2.51 µM | IC90: 4.11 µM | CC50: 27.8 µM
